Measurements: patent US20250288584A1, “COMBINATIONS COMPRISING POSITIVE ALLOSTERIC MODULATORS OR ORTHOSTERIC AGONISTS OF METABOTROPIC GLUTAMATERGIC RECEPTOR SUBTYPE 2 AND THEIR USE” (JANSSEN PHARMACEUTICA NV, priority 2014, published 2025)
Where “and” joins values, the source holds several entries; their conditions need not be identical. Equal entries are not always repeated. Where two headings read alike, the source gives them in different places.

How the values were obtained:
Assay type in all cases: in vivo, mice
[1] = Minimal motor impairment (rotarod)
[2] = tested on: 6 Hz (32 mA) psychomotor seizures; assay: 6 Hz psychomotor seizure test, 32 mA (incl. TPE determination)
How it was run: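 Mice dosed s.c. into a loose skin fold (one compound p.o.) at 0.01 mL/g body weight. Focal seizures induced by corneal stimulation (6 Hz, 0.2 msec rectangular pulse, 3 sec) at 32 mA; absence of stun, forelimb clonus, vibrissae twitching and Straub-tail scored as protection. TPE determined in this assay; ED50 from evenly spaced doses.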

[3] = Plasma and brain levels (pK/pD analysis); details: for concentration at 0.25 h / concentration at 0.5 h / concentration at 1 h / concentration at 2 h / concentration at 4 h: mouse, plasma, subcutaneous
Experimental: In various tests, animals were sacrificed following testing, and trunk blood and/or brain tissue (whole brains) was collected for quantification of drug levels. Immediately after testing, animals were decapitated and trunk blood was collected into a BD Vacutainer® tube containing K2EDTA and chilled on ice until centrifugation. Following centrifugation (13000-18000 rpm, 5-7 min), the plasma was removed and transferred to a labeled microcentrifuge tube and stored at −80° C. For brain tissue collection, brains were removed immediately following decapitation and flash frozen. The frozen sample was placed in a labeled centrifuge tube and stored at −80° C.
In addition to recording the efficacy and toxicity data for these compounds alone or in combination, both plasma and brain samples were collected from each of the groups for pharmacokinetic/pharmacokinetic analysis.

[4] = 10 mg/kg s.c., 0.25 h, 32 mA group
[5] = 20 mg/kg s.c., 0.25 h, 32 mA group
[6] = 10 mg/kg, 10 mg/kg s.c., 32 mA group, read-out: Co. No. 25-a mean plasma levels
[7] = 20 mg/kg, 20 mg/kg s.c., 32 mA group, read-out: Co. No. 25-a mean plasma levels

- Co. No. 25-a mean plasma levels (ng/mL) [3, 4]: 6,113 ng/mL
- Co. No. 25-a mean plasma levels (ng/mL) [3, 5]: 5,570 ng/mL
- concentration at 0.25 h ([3]; 1 mg/kg, 1 mg/kg s.c., 0.25 h, 32 mA group, read-out: Co. No. 25-a mean plasma levels): 466 ng/mL
- concentration at 0.25 h ([3]; 5 mg/kg, 5 mg/kg s.c., 0.25 h, 32 mA group, read-out: Co. No. 25-a mean plasma levels): 2560 ng/mL
- concentration at 0.25 h ([3]; 5 mg/kg, 5 mg/kg s.c., 44 mA group, read-out: Co. No. 25-a mean plasma levels): 1430 ng/mL
- concentration at 0.25 h ([3]; 10 mg/kg, 10 mg/kg s.c., 0.25 h, 32 mA group, read-out: Co. No. 25-a mean plasma levels): 11000 ng/mL
- concentration at 0.25 h ([3]; 10 mg/kg, 10 mg/kg s.c., 0.25 h, 32 mA group, read-out: Co. No. 25-a mean plasma levels, statistical outlier removed): 11000 ng/mL
- concentration at 0.5 h [3, 6]: 3330 ng/mL
- concentration at 1 h [3, 6]: 700 ng/mL
- concentration at 2 h [3, 6]: 256 ng/mL
- concentration at 4 h [3, 6]: 40 ng/mL
- concentration at 0.25 h ([3]; 10 mg/kg, 10 mg/kg s.c., 44 mA group, read-out: Co. No. 25-a mean plasma levels): 4340 ng/mL
- concentration at 0.25 h ([3]; 10 mg/kg, 10 mg/kg s.c., 44 mA group, read-out: Co. No. 25-a mean plasma levels, statistical outlier removed): 4340 ng/mL
- concentration at 0.25 h ([3]; 15 mg/kg, 15 mg/kg s.c., 0.25 h, 32 mA group, read-out: Co. No. 25-a mean plasma levels): 1200 ng/mL
- concentration at 0.25 h ([3]; 20 mg/kg, 20 mg/kg s.c., 0.25 h, 32 mA group, read-out: Co. No. 25-a mean plasma levels): 4100 ng/mL
- concentration at 0.5 h [3, 7]: 2800 ng/mL
- concentration at 1 h [3, 7]: 1760 ng/mL
- concentration at 2 h [3, 7]: 618 ng/mL
- concentration at 4 h [3, 7]: 28 ng/mL
- concentration at 0.25 h ([3]; 20 mg/kg, 20 mg/kg s.c., 44 mA group, read-out: Co. No. 25-a mean plasma levels): 3370 ng/mL
- concentration at 0.25 h ([3]; 30 mg/kg, 30 mg/kg s.c., 44 mA group, read-out: Co. No. 25-a mean plasma levels): 7220 ng/mL
- concentration at 0.25 h ([3]; 40 mg/kg, 40 mg/kg s.c., 44 mA group, read-out: Co. No. 25-a mean plasma levels): 6260 ng/mL
SMILES: CCCCn1ccc(N2CCC(c3ccc(F)cc3F)CC2)c(Cl)c1=O [Co. No. 25-a]
- # rotarod motor impairment/# tested ([1]; 1 mg/kg s.c., 0.25 h, 32 mA group): 0/8
- # rotarod motor impairment/# tested ([1]; 5 mg/kg s.c., 0.25 h, 32 mA group): 0/8
- # rotarod motor impairment/# tested ([1]; 5 mg/kg s.c., 0.25 h, 44 mA group): 1/8
- # rotarod motor impairment/# tested [1, 4]: 0/4 and 0/8
- # rotarod motor impairment/# tested ([1]; 10 mg/kg s.c., 0.25 h, 44 mA group): 0/8
- # rotarod motor impairment/# tested ([1]; 10 mg/kg s.c., 0.5 h, 32 mA group): 0/4
- # rotarod motor impairment/# tested ([1]; 10 mg/kg s.c., 1 h, 32 mA group): 1/4
- # rotarod motor impairment/# tested ([1]; 10 mg/kg s.c., 2 h, 32 mA group): 0/4
- # rotarod motor impairment/# tested ([1]; 10 mg/kg s.c., 4 h, 32 mA group): 0/4
- # rotarod motor impairment/# tested ([1]; 15 mg/kg s.c., 0.25 h, 32 mA group): 0/8
- # rotarod motor impairment/# tested [1, 5]: 0/4 and 0/8
- # rotarod motor impairment/# tested ([1]; 20 mg/kg s.c., 0.25 h, 44 mA group): 0/8
- # rotarod motor impairment/# tested ([1]; 20 mg/kg s.c., 0.5 h, 32 mA group): 1/4
- # rotarod motor impairment/# tested ([1]; 20 mg/kg s.c., 1 h, 32 mA group): 1/4
- # rotarod motor impairment/# tested ([1]; 20 mg/kg s.c., 2 h, 32 mA group): 0/4
- # rotarod motor impairment/# tested ([1]; 20 mg/kg s.c., 4 h, 32 mA group): 1/4
- # rotarod motor impairment/# tested ([1]; 30 mg/kg s.c., 0.25 h, 44 mA group): 0/8
- # rotarod motor impairment/# tested ([1]; 40 mg/kg s.c., 0.25 h, 44 mA group): 0/8
- # protected/# tested ([2]; 1 mg/kg s.c., 0.25 h): 1/8
- # protected/# tested ([2]; 5 mg/kg s.c., 0.25 h): 4/8
- # protected/# tested ([2]; 10 mg/kg s.c., 0.25 h): 2/4 and 4/8
- # protected/# tested ([2]; 10 mg/kg s.c., 0.5 h): 1/4
- # protected/# tested ([2]; 10 mg/kg s.c., 1 h): 1/4
- # protected/# tested ([2]; 10 mg/kg s.c., 2 h): 0/4
- # protected/# tested ([2]; 10 mg/kg s.c., 4 h): 0/4
- # protected/# tested ([2]; 15 mg/kg s.c., 0.25 h): 3/8
- # protected/# tested ([2]; 20 mg/kg s.c., 0.25 h): 4/4 and 8/8
- # protected/# tested ([2]; 20 mg/kg s.c., 0.5 h): 3/4
- # protected/# tested ([2]; 20 mg/kg s.c., 1 h): 4/4
- # protected/# tested ([2]; 20 mg/kg s.c., 2 h): 1/4
- # protected/# tested ([2]; 20 mg/kg s.c., 4 h): 1/4
- ED50 ([2]; Mus musculus, sc, at TPE, read-out: ED50 (95% CI) 32 mA): 7.7 mg/kg
- ED50 (95% CI) 32 mA ([2]; s.c., at TPE): ED50 (95% CI): 7.7 mg/kg (2.3 to 18.4)
